Where two headings read alike, the source gives them in different places. Blank lines part the entries; values can stand above or below the molecule they belong to.
Key:
[1] = Liver microsomal stability, human; format: in vitro ADME; settings: for Hepatic Extraction Ratio / Predicted Hepatic CL: human liver microsomes 0.5 mg/mL, 1 μM, NADPH
Method: (§1) Each test compound and assay control (final concentration of 1 μM) were incubated with liver microsomes (final protein concentration of 0.5 mg/mL) from rats, dogs or humans at 37° C. in the presence of NADPH for 0.5, 5, 10, 15, 30 and 60 min. The reaction was terminated by adding ice-cold acetonitrile containing internal standard at each time point following incubation. The samples were then centrifuged at 4000 rpm for 10 minutes and the supernatant was analyzed by LC-MS/MS. The predicted hepatic clearance and the hepatic extraction ratio were calculated for the test compounds and the assay control.

[2] = Intestinal microsomal stability, rat; format: in vitro ADME; settings: for half-life at 1 µM / microsomal CLint at 1 µM: rat intestinal microsomes 1 mg/mL protein, NADPH, 37° C.; for microsomal CLint at 1 µM: read-out: CLint (μL/min/mg protein)
Method: (§2) Each test compound and assay control (final concentration of […]) were incubated with intestinal microsomes (final protein concentration of 1 mg/mL) from rats, dogs or humans at 37° C. in the presence of NADPH for 0.5, 5, 10, 15, 30 and 60 minutes. The reaction was terminated by adding ice-cold acetonitrile containing internal standard (cetirizine/tolbutamide/telmisartan) at each time point following incubation. Samples were then centrifuged at 4000 rpm for 10 minutes and the supernatant was analyzed by LC-MS/MS. The in vitro half-life (t1/2) and intrinsic clearance (CLint) were calculated for the test compounds and the assay control.

[3] = Liver microsomal stability, dog; format: in vitro ADME; settings: for Hepatic Extraction Ratio / Predicted Hepatic CL: dog liver microsomes 0.5 mg/mL, 1 μM, NADPH
Method: as §1

[4] = rat; for AUClast / Cmax / F (%) / Tmax / t1/2 / AUClast (ng * h/mL) / Cmax (ng/mL) / Median Tmax: male, Sprague-Dawley; for AUClast / Cmax / F (%) / Tmax / t1/2 / AUClast (ng * h/mL) / Cmax (ng/mL) / Median Tmax / increase in AUC from 3 mg/kg to 14 mg/kg (in words) / release of nicorandil in vivo (in words): po
[5] = Plasma stability, human plasma; format: in vitro ADME; settings: for half-life at 1 µM / % PCR (at 60 minutes): 37° C., 1 μM; for % PCR (at 60 minutes): parent compound remaining at 60 minutes
Method: (§3) Each test compound and assay control (final concentration of 1 μM) were incubated with human plasma or rat plasma at 37° C. for 0.5, 5, 30 and 60 minutes. The reaction was quenched with ice-cold acetonitrile containing internal standard (cetirizine/tolbutamide/telmisartan) following incubation.

[6] = Intestinal microsomal stability, dog; format: in vitro ADME; settings: for half-life at 1 µM / microsomal CLint at 1 µM: dog intestinal microsomes 1 mg/mL protein, NADPH, 37° C.; for microsomal CLint at 1 µM: read-out: CLint (μL/min/mg protein)
Method: as §2

[7] = Intestinal microsomal stability, human; format: in vitro ADME; settings: for half-life at 1 µM / microsomal CLint at 1 µM: human intestinal microsomes 1 mg/mL protein, NADPH, 37° C.; for microsomal CLint at 1 µM: read-out: CLint (μL/min/mg protein)
Method: as §2

[8] = Plasma stability, rat plasma; format: in vitro ADME; settings: for half-life at 1 µM / % PCR (at 60 minutes): 37° C., 1 μM; for % PCR (at 60 minutes): parent compound remaining at 60 minutes
Method: as §3

[9] = Liver microsomal stability, rat; format: in vitro ADME; settings: for Hepatic Extraction Ratio / Predicted Hepatic CL: rat liver microsomes 0.5 mg/mL, 1 μM, NADPH
Method: as §1

[10] = Pharmacokinetic study in rats, single oral dose; settings: rat, 0.25% sodium CMC
[11] = compared to nitrate salt of compound 8

SMILES: CCCCCCCCCCCC(=O)OC[n+]1cccc(C(=O)NCCO[N+](=O)[O-])c1.[Cl-] [Compound 10]
Hepatic Extraction Ratio [1]: 0.90
Predicted Hepatic CL [1]: 19 mL/min/kg
stability in liver microsomes (in words) ([1]; human liver microsomes, compared to nitrate salt of compound 8): unstable
half-life at 1 µM [2]: 26 min
microsomal CLint at 1 µM [2]: 27 µL/min/mg
clearance in intestinal microsomes (in words) ([2]; rat intestinal microsomes, compared to nitrate salt of compound 8 and compounds 11 and 13): high clearance
Hepatic Extraction Ratio [3]: 1.0
Predicted Hepatic CL [3]: 4 mL/min/kg
stability in liver microsomes (in words) ([3]; dog liver microsomes, compared to nitrate salt of compound 8): unstable
AUClast ([4]; in vivo, 3 mg/kg): 5513 ng·h/mL
Cmax ([4]; in vivo, 3 mg/kg): 2226 ng/mL
F (%) ([4]; in vivo, 3 mg/kg): 67%
Tmax ([4]; in vivo, 3 mg/kg): 30 min
t1/2 ([4]; in vivo, 3 mg/kg): 4.07 h
AUClast (ng * h/mL) ([4]; in vivo, 3 mg/kg, pH 4.5): 26,838 ng * h/mL
Cmax (ng/mL) ([4]; in vivo, 3 mg/kg, pH 4.5): 12,446 ng/mL
Median Tmax ([4]; in vivo, 3 mg/kg, pH 4.5): 15 min
AUClast (ng * h/mL) ([4]; in vivo, 14 mg/kg): 36,526 ng * h/mL
Cmax ([4]; in vivo, 14 mg/kg): 6297 ng/mL
F (%) ([4]; in vivo, 14 mg/kg): 97%
Tmax ([4]; in vivo, 14 mg/kg): 240 min
t1/2 ([4]; in vivo, 14 mg/kg): 2.74 h
oral bioavailability of nicorandil after oral dosing (in words) ([4]; in vivo): high
increase in AUC from 3 mg/kg to 14 mg/kg (in words) ([4]; in vivo): more than dose proportional
release of nicorandil in vivo (in words) [4]: release nicorandil in vivo
half-life at 1 µM [5]: 1.23 min
% PCR (at 60 minutes) [5]: 0%
release in plasma (in words) [5, 11]: rapidly released
half-life at 1 µM [6]: 47 min
microsomal CLint at 1 µM [6]: 15 µL/min/mg
clearance in intestinal microsomes (in words) ([6]; dog intestinal microsomes, compared to nitrate salt of compound 8 and compounds 11 and 13): high clearance
half-life at 1 µM [7]: 24 min
microsomal CLint at 1 µM [7]: 29 µL/min/mg
clearance in intestinal microsomes (in words) ([7]; human intestinal microsomes, compared to nitrate salt of compound 8 and compounds 11 and 13): high clearance
half-life at 1 µM [8]: 1.59 min
% PCR (at 60 minutes) [8]: 0%
release in plasma (in words) [8, 11]: rapidly released
Hepatic Extraction Ratio [9]: 0.84
Predicted Hepatic CL [9]: 46 mL/min/kg
stability in liver microsomes (in words) ([9]; rat liver microsomes, compared to nitrate salt of compound 8): unstable

SMILES: CCC(C)(C)C(=O)OC[n+]1cccc(C(=O)NCCO[N+](=O)[O-])c1.[Cl-] [Compound 11]
half-life at 1 µM [2]: > 60 min
microsomal CLint at 1 µM [2]: 8 µL/min/mg
AUClast ([4]; in vivo, 3 mg/kg): 2289 ng·h/mL
Cmax ([4]; in vivo, 3 mg/kg): 1171 ng/mL
F (%) ([4]; in vivo, 3 mg/kg): 28%
Tmax ([4]; in vivo, 3 mg/kg): 15 min
AUClast (ng * h/mL) ([4]; in vivo, 3 mg/kg, pH 4.5): 22,632 ng * h/mL
Cmax (ng/mL) ([4]; in vivo, 3 mg/kg, pH 4.5): 15,223 ng/mL
Median Tmax ([4]; in vivo, 3 mg/kg, pH 4.5): 15 min
AUClast ([4]; in vivo, 14 mg/kg): 27422 ng·h/mL
Cmax ([4]; in vivo, 14 mg/kg): 6245 ng/mL
F (%) ([4]; in vivo, 14 mg/kg): 72%
Tmax ([4]; in vivo, 14 mg/kg): 15 min
increase in AUC from 3 mg/kg to 14 mg/kg (in words) ([4]; in vivo): more than dose proportional
release of nicorandil in vivo (in words) [4]: release nicorandil in vivo
half-life at 1 µM [6]: > 60 min
microsomal CLint at 1 µM [6]: 9 µL/min/mg
half-life at 1 µM [7]: > 60 min
microsomal CLint at 1 µM [7]: < 6 µL/min/mg

SMILES: Cc1oc(=O)oc1C[n+]1cccc(C(=O)NCCO[N+](=O)[O-])c1.[Cl-] [Compound 12]
AUClast ([4]; in vivo, 3 mg/kg, pH 4.5): 8893 ng·h/mL
Cmax ([4]; in vivo, 3 mg/kg, pH 4.5): 4065 ng/mL
Median Tmax ([4]; in vivo, 3 mg/kg, pH 4.5): 30 min

SMILES: O=C(NCCO[N+](=O)[O-])c1ccc[n+](COC(=O)N2CCCC2C(=O)O)c1.[Cl-] (stereo not drawn) [Compound 13]
half-life at 1 µM [2]: > 60 min
microsomal CLint at 1 µM [2]: < 6 µL/min/mg
half-life at 1 µM [6]: > 60 min
microsomal CLint at 1 µM [6]: < 6 µL/min/mg
half-life at 1 µM [7]: > 60 min
microsomal CLint at 1 µM [7]: < 6 µL/min/mg

SMILES: O=C(NCCO[N+](=O)[O-])c1cccnc1 [Nicorandil]
half-life at 1 µM [5]: > 60 min
% PCR (at 60 minutes) [5]: 109%
half-life at 1 µM [8]: > 60 min
% PCR (at 60 minutes) [8]: 114%

SMILES: C[C@H](NC(=O)OC[n+]1cccc(C(=O)NCCO[N+](=O)[O-])c1)C1CCCCC1.O=[N+]([O-])[O-] [reference compound]
Hepatic Extraction Ratio [1]: 0.71
Predicted Hepatic CL [1]: 15 mL/min/kg
half-life at 1 µM [2]: > 60 min
microsomal CLint at 1 µM [2]: < 6 µL/min/mg
Hepatic Extraction Ratio [3]: 0.84
Predicted Hepatic CL [3]: 26 mL/min/kg
release of nicorandil in vivo (in words) [10]: release nicorandil in vivo
half-life at 1 µM [5]: 31.2 min
% PCR (at 60 minutes) [5]: 28.7%
half-life at 1 µM [6]: > 60 min
microsomal CLint at 1 µM [6]: < 6 µL/min/mg
half-life at 1 µM [7]: > 60 min
microsomal CLint at 1 µM [7]: 9 µL/min/mg
half-life at 1 µM [8]: 38.2 min
% PCR (at 60 minutes) [8]: 36.2%
Hepatic Extraction Ratio [9]: > 0.89
Predicted Hepatic CL [9]: > 49 mL/min/kg

Results, then the molecule that gave them:

half-life at 1 µM [8]: 18.9 min
% PCR (at 60 minutes) [8]: 11.2%
SMILES: CCOC(=O)[C@H](CCc1ccccc1)N[C@@H](C)C(=O)N1CCC[C@H]1C(=O)O [Enalapril]

half-life at 1 µM [5]: 21.3 min
% PCR (at 60 minutes) [5]: 9.2%
SMILES: CC(C)[N+](C)(CCOC(=O)C1c2ccccc2Oc2ccccc21)C(C)C [Propantheline Bromide]
